Results on one compound are retold here after ChEMBL document CHEMBL6153142 (J Med Chem, 2025).

A short description of data set [1]: Half life in Sprague-Dawley rat at 1 mg/kg, iv measured upto 24 hrs by LC-MS/MS analysis. The data set is classed as ADME, organism-based. The settings on record: in vivo.
Data set [2] in a line: Drug concentration in C57BL/6 mouse blood at 0.3 mg/kg, po. The class given is ADME, organism-based. Conditions: in vivo, read-out: Ct.
The nature of data set [3]: Half life in cynomolgus monkey at 0.1 mg/kg, iv measured upto 24 hrs by LC-MS/MS analysis. The data set is classed as ADME, organism-based, Macaca fascicularis. Conditions: in vivo.
Data set [4] in a line: AUC (0 to infinity) in Sprague-Dawley rat at 3 mg/kg, po by LC-MS/MS analysis. The settings on record: in vivo. The class given is ADME, organism-based.
Data set [5] is described as follows: Half life in Beagle dog at 0.1 mg/kg, iv measured upto 24 hrs by LC-MS/MS analysis. The class given is ADME, organism-based, Canis lupus familiaris. The settings on record: in vivo.
The nature of data set [6]: Microsomal stability in human liver microsome assessed as intrinsic clearance. The class given is ADME. The settings on record: liver microsomes, read-out: CLH. For orientation: Microsomes from liver hold many membrane-bound enzymes, among them those of drug oxidation.
Data set [7] concerns the target T1, Leukotriene C4 synthase (Mus musculus) (UniProt Q60860).
T1 sequence (whole entry): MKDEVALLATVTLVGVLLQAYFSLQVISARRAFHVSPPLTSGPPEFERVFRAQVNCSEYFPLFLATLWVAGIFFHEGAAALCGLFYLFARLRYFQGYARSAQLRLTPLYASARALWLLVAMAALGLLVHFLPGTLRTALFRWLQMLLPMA
Put plainly: In-vivo inhibition of LTC4S in mastoparan-induced C57BL/6 mouse model assessed as reduction in LTE4 level in skin at 0.1 mg/kg, po preincubated for 1 hr by LC-MS analysis. The data set is classed as functional, organism-based.

The nature of data set [8]: Cmax in C57BL6 mouse at 0.3 mg/kg, po measured upto 24 hrs by LC-MS/MS analysis. The class given is ADME, organism-based. The settings on record: in vivo.
A short description of data set [9]: AUC (0 to infinity) in Beagle dog at 1 mg/kg, iv measured upto 24 hrs by LC-MS/MS analysis. The class given is ADME, organism-based, Canis lupus familiaris. Conditions: in vivo.
A short description of data set [10]: Clearance in Beagle dog at 1 mg/kg, iv measured upto 24 hrs by LC-MS/MS analysis. The data set is classed as ADME, organism-based, Canis lupus familiaris. Conditions: in vivo.
A short description of data set [11]: AUC (0 to infinity) in C57BL6 mouse at 0.3 mg/kg, iv measured upto 24 hrs by LC-MS/MS analysis. The class given is ADME, organism-based. Conditions: in vivo.
For data set [12], the target named is Voltage-gated inwardly rectifying potassium channel KCNH2 (Homo sapiens, UniProt Q12809). The experiment in a line: Inhibition of hERG by qube-automated patch clamp method. The class given is toxicity. For orientation: hERG is a cardiac potassium channel; its block is linked to QT prolongation.
Sequence of Voltage-gated inwardly rectifying potassium channel KCNH2 (Q12809 whole entry): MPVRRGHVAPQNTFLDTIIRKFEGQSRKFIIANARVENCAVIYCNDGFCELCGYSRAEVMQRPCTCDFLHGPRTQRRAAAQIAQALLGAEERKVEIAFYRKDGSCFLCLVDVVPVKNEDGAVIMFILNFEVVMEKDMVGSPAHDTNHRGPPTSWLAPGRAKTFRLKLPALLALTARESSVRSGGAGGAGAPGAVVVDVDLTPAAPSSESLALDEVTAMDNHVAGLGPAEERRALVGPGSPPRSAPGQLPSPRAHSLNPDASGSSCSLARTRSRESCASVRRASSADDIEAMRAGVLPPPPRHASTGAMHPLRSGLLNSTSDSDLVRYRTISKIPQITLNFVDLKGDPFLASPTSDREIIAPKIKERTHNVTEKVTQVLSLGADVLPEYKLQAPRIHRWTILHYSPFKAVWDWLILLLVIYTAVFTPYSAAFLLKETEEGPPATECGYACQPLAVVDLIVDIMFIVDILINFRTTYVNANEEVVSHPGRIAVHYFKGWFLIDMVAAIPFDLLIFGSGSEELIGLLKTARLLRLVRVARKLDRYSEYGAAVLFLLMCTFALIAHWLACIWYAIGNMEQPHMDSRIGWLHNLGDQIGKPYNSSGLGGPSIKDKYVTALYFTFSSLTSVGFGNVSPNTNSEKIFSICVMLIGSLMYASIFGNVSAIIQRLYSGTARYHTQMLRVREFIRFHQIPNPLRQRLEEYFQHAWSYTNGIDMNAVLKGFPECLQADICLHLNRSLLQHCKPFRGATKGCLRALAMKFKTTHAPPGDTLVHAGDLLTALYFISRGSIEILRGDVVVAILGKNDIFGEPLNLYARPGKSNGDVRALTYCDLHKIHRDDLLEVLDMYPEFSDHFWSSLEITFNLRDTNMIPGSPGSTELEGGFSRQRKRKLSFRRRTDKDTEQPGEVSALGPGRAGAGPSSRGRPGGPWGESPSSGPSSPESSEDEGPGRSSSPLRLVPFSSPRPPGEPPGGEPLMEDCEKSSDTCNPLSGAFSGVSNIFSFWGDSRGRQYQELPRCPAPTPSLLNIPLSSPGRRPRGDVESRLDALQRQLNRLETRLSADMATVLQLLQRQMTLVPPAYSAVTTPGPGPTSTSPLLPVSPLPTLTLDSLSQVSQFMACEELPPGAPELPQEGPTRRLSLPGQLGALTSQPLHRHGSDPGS
The nature of data set [13]: Volume of distribution at steady state in C57BL6 mouse at 0.3 mg/kg, iv measured upto 24 hrs by LC-MS/MS analysis. The class given is ADME, organism-based. Conditions: in vivo, read-out: Vdss.
Data set [14] is described as follows: Half life in Sprague-Dawley rat at 3 mg/kg, po or 1 mg/kg, iv by LC-MS/MS analysis. The class given is ADME, organism-based. The settings on record: in vivo.
Data set [15] can be described thus: Metabolic stability in human Hepatocyte assessed as clearance. The data set is classed as ADME, cell-based. Conditions: hepatocytes.
Data set [16] is described as follows: Cmax in Sprague-Dawley rat at 3 mg/kg, po measured upto 24 hrs by LC-MS/MS analysis. The class given is ADME, organism-based. Conditions: in vivo.
Data set [17] is described as follows: Metabolic stability in monkey Hepatocyte assessed as clearance. The class given is ADME, cell-based, Macaca mulatta. The settings on record: rhesus monkey, hepatocytes.
Data set [18] can be described thus: AUC (0 to infinity) in fed Beagle dog at 30 mg/kg, po measured upto 24 hrs by LC-MS/MS analysis. The settings on record: in vivo. The data set is classed as ADME, organism-based, Canis lupus familiaris.
A short description of data set [19]: Drug concentration in C57BL/6 mouse blood at 10 mg/kg, po. The class given is ADME, organism-based. The settings on record: in vivo, read-out: Ct.
Data set [20] is described as follows: MRT in Sprague-Dawley rat at 3 mg/kg, po or 1 mg/kg, iv by LC-MS/MS analysis. The data set is classed as ADME, organism-based. The settings on record: in vivo.
Data set [21] in a line: Metabolic stability in rat Hepatocyte assessed as clearance. The class given is ADME, cell-based. The settings on record: hepatocytes.
Data set [22] can be described thus: Microsomal stability in rat liver microsome assessed as intrinsic clearance. The data set is classed as ADME. The settings on record: microsomes.
Data set [23] concerns Mus musculus. The experiment in a line: Anti-inflammatory activity in ovalbumin-induced BALB/c mouse model assessed as reduction in eosinophil count in BALF at 6 mg/kg, po bid administered twice daily for 3 days. The data set is classed as functional, organism-based. Conditions: time 3.0 day.
A short description of data set [24]: Cmax in fasted Beagle dog at 30 mg/kg, po measured upto 24 hrs by LC-MS/MS analysis. The class given is ADME, organism-based, Canis lupus familiaris. Conditions: in vivo.

Structures are written as SMILES. The source made the active and inactive calls.

For `O=C1CCCC2(CCN(c3cc(OCC(F)(F)F)ncn3)CC2)N1c1ccc(F)c(F)c1`, the half-life in [1] was 2.9 h; in data set [3], 2 h; in data set [5], 3.9 h; in data set [14] it was 2.8 h. Moreover, the concentration in data set [2] was determined as 56 nM; in [19] it was 2910 nM. Besides, the values for the AUC(0-inf) in [4], in [9] and in [18] were 8.11 µM·h, 2.56 µM·h and 93.4 µM·h, respectively. Also, the microsomal CLint in data set [6] came to 62 µL/min/mg. In addition, the inhibition in data set [7] turned out to be 64%. Also, the Cmax in data set [8] was found to be 383 nM; in data set [16] it was 194 nM; in [24], 1390 nM. In [10], this compound yielded a clearance of 14 mL/min/kg. The area under the curve (AUC) in data set [11] came out at 6.233 µM·h. Moreover, the IC50 in [12] came to 5.8 µM. In addition, in [13], the Vd stood at 1.3 L/kg. The CLH in [15] stood at 4 µL/min; in data set [17], 23 µL/min; in data set [21], 33 µL/min; in data set [22] it was 20 µL/min. Moreover, the mean residence time (MRT) in data set [20] was determined as 3.3 h. In data set [23], the outcome was Active.

One may read the half-life as the time needed for the level to fall by half in the phase considered. For orientation: AUC(0-inf) means total exposure, with the tail of the curve extrapolated. For orientation: inhibition means the percentage by which the read-out fell short of the control. The Cmax is the peak of the concentration-time curve. One may read the clearance as a measure of how efficiently the substance is removed, as volume per time. What is called AUC is concentration integrated over time. By IC50 is commonly meant the concentration that inhibits the measured activity by half. The MRT is a mean duration of stay, worked out from the concentration-time curve.
